From PubChem BioAssay (NCI) come the findings set out here.

Each structure is given as a SMILES string.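 In this assay, cells in 96-well plates receive the compound at five concentrations for 48 hours. Endpoints are linearly interpolated between the surrounding concentrations. GI50 marks 50% less growth. Definition used: TGI = concentration required for complete inhibition of growth.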

What all share (experiment): growth of human tumour cells (NCI), 48 h
In test [1] the test system is BT-549 breast.
The subject of test [2] is DLD-1 colon.
Test [3] deals with DMS 273 small cell lung.
Test [4] has as its system HOP-18 NSCLC.
The subject of test [5] is LXFL 529 NSCLC.
Test [6] has as its system SNB-78 CNS.
Test [7] relates to MDA-N.
The test system of test [8] is XF 498 CNS.
The test system of test [9] is RXF-631 renal.

Turning to `Cc1c(C)c2c(c(C)c1NC(=O)/C=C\C(=O)O)CCC(C)(CCCC(C)CCCC(C)CCCC(C)C)O2` (stereo unspecified), in test [1], the GI50 is 1.35 µM and the TGI turned out to be 2.69 µM.
`Cc1cc(=O)n(-c2ccccc2)c(=O)o1`: the TGI in test [2], in test [3], in test [4], in test [5] and in test [6] was greater than 100 µM throughout.
With `COc1cc(/C=N/Nc2ncnc3c2cnn3C(C)C)ccc1O`, in [1], the GI50 is greater than 20.4 µM and the TGI was greater than 25 µM.
Regarding `O=C(COc1ccc(/C=C2\Oc3ccccc3C2=O)cc1)Nc1nccs1`, in test [1], the GI50 was 18.5 µM and the TGI amounted to 96.9 µM.
Turning to `N=Nc1c(OC(=O)Nc2ccccc2)[nH]c2ccccc12`, the TGI in test [1] came to 27.6 µM; in test [7], 61.8 µM.
As to `COc1cccc(C(=O)Nc2ccc(CN3CCc4nc5cc(OC)c(OC)cc5cc43)cc2)c1`, in [1], the GI50 is 5.32 µM and the TGI turned out to be 22.8 µM.
Turning to `COC(=O)[C@H]1[C@H]2C[C@@H]3c4[nH]c5cc(OC)ccc5c4CCN3C[C@H]2C[C@@H](OC(=O)c2cc(OC)c(OC)c(OC)c2)[C@@H]1OC`, the TGI in [2] is greater than 100 µM; in test [3] it was 51.8 µM; in test [5], 35.7 µM.
In the case of `N#CC(C#N)=Cc1c(-c2ccccc2)[nH]c2ccccc12`, in test [1], the GI50 is 8.45 µM and the TGI is greater than 100 µM.
As to `CC[C@@]1(OC(=O)CN)C(=O)OCc2c1cc1n(c2=O)Cc2cc3cc4c(cc3nc2-1)OCO4`, in [1], the GI50 is 0.0157 µM and the TGI was found to be 0.552 µM. Further, in test [7], the GI50 is less than 0.01 µM and the TGI was determined as 2.27 µM.
The matching figures for `CC(=O)Nc1ccc(-c2c3nc(c(-c4cc5ccccc5[n+](C)c4)c4ccc([nH]4)c(-c4ccc(NC(C)=O)cc4)c4nc(c(-c5cc6ccccc6[n+](C)c5)c5ccc2[nH]5)C=C4)C=C3)cc1`: 17 µM, greater than 50 µM, 11.2 µM and 36.7 µM.
Regarding `[N-]=[N+]=Nc1ccc(CCN2CCN(c3cccc(C(F)(F)F)c3)CC2)cc1I`, the TGI in [3], in test [5] and in test [6] was greater than 100 µM each time.
Consider `CC1(C)C(c2ccccc2)C12CCC1(C2=O)C(c2ccccc2)C1(C)C` (stereo unspecified), for which the TGI was 45.3 µM in test [3], greater than 100 µM in test [5], 62.4 µM in [6] and 36.1 µM in test [8].
Turning to `Oc1c(C(Nc2cccc3ccccc23)c2ccccc2)ccc2cccnc12` (stereo unspecified), in test [1], the GI50 was 2.07 µM and the TGI came to 14.5 µM.
On to `Cc1cc(Cc2cc(C)c(O)c(C)c2)cc(C)c1O`, for which, in test [1], the GI50 is 3.78 µM and the TGI came out at 17.6 µM.
Take `Cc1cc(=O)oc2c(CN3CCCCC3)c(O)ccc12`: the TGI in test [1] and in test [7] was greater than 100 µM throughout.
Regarding `COc1cc(N2CCN(C(C)C)CC2)ccc1Nc1nc(Nc2cccc3ncccc23)c2cc[nH]c2n1`, in test [1], the GI50 was 4.75 µM and the TGI amounted to 13.6 µM.
The matching figures for `CCCCN(CCCC)c1ccc(C(=N)c2ccc(N(C)C)cc2)cc1`: 1.29 µM and 2.64 µM.
Regarding `CCN(CC)C(=O)CC1=C(C)/C(=C/c2[nH]c(-c3ccc[nH]3)cc2OC)N=C1C`, in test [1], the GI50 was 0.787 µM and the TGI amounted to 47.1 µM.
As to `Cc1onc(-c2c(F)cccc2Cl)c1-c1ncc(-c2ccc(Cl)cc2)o1`, in [1], the GI50 is 6.5 µM and the TGI is greater than 100 µM.
The matching figures for `O=C(/C=C/C12c3ccccc3C(c3ccccc31)C1C(=O)N(c3ccccc3)C(=O)C12)c1ccc(Cl)cc1` (stereo unspecified): 1.37 µM and 2.88 µM.
For the compound `O=[N+]([O-])c1cc([N+](=O)[O-])c(Cl)c(Cl)c1Cl`, in test [1], the GI50 is 8.84 µM and the TGI was found to be 21 µM.
The matching figures for `O=C(/C=C1\C(=O)N(Cc2ccc([N+](=O)[O-])cc2)c2ccccc21)c1ccc(OCCN2CCCCC2)cc1`: 1.64 µM and 3 µM.
Consider `O=C1c2ccccc2C(=O)C2C1C1C(=O)c3ccccc3C(=O)C21` (stereo unspecified), for which the TGI in [2], in test [3], in [4], in test [5] and in test [9] was greater than 100 µM each time.
`C=CCn1c(=O)c2cnc(Nc3ccc(N4CCN(C)CC4)cc3)nc2n1-c1ccc2c(n1)[C@@](O)(CC)CC2`: in test [1], the GI50 is 0.287 µM and the TGI came to 3.46 µM.
With `COc1cc2c(c(OC)c1OC)C(=O)CC(c1cccc(NC(=O)c3ccc(Br)cc3)c1)O2` (stereo unspecified), in test [1], the GI50 was 2.09 µM and the TGI stood at 6.39 µM.
As to `COc1ccc(C(C#N)NC23CC4CC(CC(C4)C2)C3)cc1OC` (stereo unspecified), the TGI in test [1] and in test [7] was greater than 100 µM in each case.
With `O=C(CCN1CCOCC1)Nc1ccc(F)cc1F`, the TGI in test [1] and in test [7] was greater than 100 µM throughout.
Turning to `Nc1ncnc2c1ncn2C1OC(CSC(F)(F)F)C(O)C1O` (stereo unspecified), the TGI in test [2], in test [3], in test [4], in test [5] and in [6] was greater than 100 µM throughout.
As to `CN1CCN(CCCOc2cccc3nc(Nc4ccc(Cl)c(F)c4)ccc23)CC1`, in test [1], the GI50 was 2.4 µM and the TGI was determined as 7.73 µM.
In test [7], `CC(C)(C)[Si](C)(C)OCC1CCC(n2cnc3c(=O)[nH]cnc32)O1` (stereo unspecified) displayed a TGI greater than 100 µM.
Consider `CCC1=C(C)/C(=C/c2[nH]c(C(Br)Br)c(CC)c2C)N=C1C(Br)Br`, for which the TGI in test [2], in test [4], in test [5] and in test [6] was greater than 100 µM each time.
For `Cc1oc2nc[nH]c(=O)c2c1C(=O)/C=C/c1ccc(Cl)cc1`, in test [1], the GI50 was 2.24 µM and the TGI worked out at 6.55 µM.
The matching figures for `Cc1cc(N2CCN(C)CC2)nc(NCc2cc(Nc3ccnc4cc(Cl)ccc34)ccc2F)n1`: 2.13 µM and 4.64 µM.
For the compound `O=c1oc2cc(N=Cc3ccccc3Cl)ccc2c2ccccc12`, the TGI in [1] and in test [7] was greater than 100 µM throughout.
